# Laboratory results: publication PMC8482815, “Targeting Host Glycolysis as a Strategy for Antimalarial Development” (Frontiers in Cellular and Infection Microbiology, 2021)
# “And” between values parts separate entries of the source, which are not always exact repeats. Equal entries are not always repeated.
# Tested on: human erythrocytes
# Assay: Untargeted metabolomics and 13C-glucose tracing of enolase inhibitor treated erythrocytes
# Type: cell-based
# Details: 0.5h
# Method: Freshly collected erythrocytes were washed, resuspended to 10% hematocrit in buffer [25mM HEPES (pH 7.4), 120mM NaCl, 5.4mM KCl, 1.8mM CaCl2, and 1mM NaH2PO4], incubated for 1 hour at 37°C, then centrifuged at 2000xg for 5 minutes at 4°C, resuspended in fresh wash buffer to 30-40% hematocrit, and split into 210µL aliquots of packed erythrocytes. […] All samples were incubated at 37°C shaking at 500 RPM. Triplicate samples of supernatants and packed erythrocytes were collected at 0, 0.5, 1, and 6-hour intervals and snap-frozen in liquid N2.
# RBC and media samples were extracted at 1:10 and 1:20 dilutions, respectively, in 5:3:2 MeOH : MeCN:H2O v/v/v, and supernatants analyzed on a Thermo Vanquish UHPLC coupled to a Thermo Q Exactive mass spectrometer, as extensively described ([Nemkov et al., 2015]; [Nemkov et al., 2017]). The extraction buffer was supplemented with 40uM 3-^13C lactate to allow absolute quantification of lactate isotopologues, including lactate generated via glycolysis ([1,2,3-^13C3] enriched) vs. the pentose phosphate pathway ([2,3-^13C2] enriched), as described ([Reisz et al., 2016]). Metabolite assignments, peak area integration and isotopologues distributions were determined using Maven (Princeton University) ([Nemkov et al., 2015]; [Nemkov et al., 2017]).
# Data were auto-scaled and normalized to zero-hour time points. Metabolites were removed from the dataset if greater than 50% of the samples contained missing values or the relative standard deviation among replicates exceeded 25%. Additionally, data was filtered using the interquartile range to reduce near-constant values from the experiment by 5%.
# A principal component analysis of preprocessed data was plotted with the 95% confidence interval minimum volume enclosing ellipsoid for each respective group (MetaboAnalyst, cluster, plotly). A two-way repeated measures analysis of variance (ANOVA) was performed with multiple comparisons corrected for using a false discovery rate p-value cutoff of 0.05. Metabolite-Pathway analysis was performed using the R package of MetaboAnalyst, as previously described ([Xia and Wishart, 2010]). Metabolite-Protein nodal analysis was performed using omicsnet.ca and as previously described ([Zhou and Xia, 2018]).
# [1] = treated erythrocytes, one value per replicate sample, polarity +
# [2] = treated erythrocytes, one value per replicate sample, polarity -
# [3] = treated erythrocytes, replicate samples
smiles,measurement,setting,value
CC(C)(C)C(=O)OCOP(=O)(OCOC(=O)C(C)(C)C)C1CCCN(O)C1=O (stereo not shown) [POMHEX],AMP level (metabolomics signal),replicate samples,2.04E+06 and 4.36E+06 and 1.74E+06
same,ATP level (metabolomics signal),replicate samples,4.24E+03 and 2.55E+03 and 4.82E+03
same,Adenine level (metabolomics signal),replicate samples,1.54E+05 and 1.61E+05 and 1.63E+05
same,Cytosine level (metabolomics signal),replicate samples,6.37E+05 and 5.53E+05 and 6.73E+05
same,L-alanine level (metabolomics signal),replicate samples,1.10E+07 and 9.02E+06 and 1.16E+07
same,L-arginine level (metabolomics signal),replicate samples,8.79E+06 and 1.37E+07 and 1.09E+07
same,L-asparagine level (metabolomics signal),replicate samples,5.66E+06 and 6.04E+06 and 5.52E+06
same,L-aspartate level (metabolomics signal),replicate samples,5.07E+07 and 4.67E+07 and 4.55E+07
same,L-cysteine level (metabolomics signal),replicate samples,3.90E+05 and 9.84E+05 and 3.84E+05
same,L-glutamate level (metabolomics signal),replicate samples,3.66E+07 and 3.55E+07 (2×)
same,L-glutamine level (metabolomics signal),replicate samples,6.00E+07 and 6.77E+07 and 7.03E+07
same,L-histidine level (metabolomics signal),replicate samples,1.31E+06 and 1.35E+06 and 1.30E+06
same,L-isoleucine level (metabolomics signal),replicate samples,1.70E+07 and 1.55E+07 and 1.61E+07
same,L-leucine level (metabolomics signal),replicate samples,2.16E+08 and 2.81E+08 and 2.05E+08
same,L-lysine level (metabolomics signal),replicate samples,2.55E+06 and 2.50E+06 and 1.99E+06
same,L-methionine level (metabolomics signal),replicate samples,1.95E+07 and 2.57E+07 and 1.85E+07
same,L-phenylalanine level (metabolomics signal),replicate samples,1.37E+07 and 1.80E+07 and 1.25E+07
same,L-proline level (metabolomics signal),replicate samples,4.87E+07 and 5.22E+07 and 3.89E+07
same,L-serine level (metabolomics signal),replicate samples,4.56E+06 and 4.84E+06 and 4.45E+06
same,L-threonine level (metabolomics signal),replicate samples,6.27E+06 and 7.92E+06 and 7.08E+06
same,L-tryptophan level (metabolomics signal),replicate samples,5.02E+06 and 4.78E+06 and 4.62E+06
same,L-tyrosine level (metabolomics signal),replicate samples,2.37E+07 (2×) and 3.01E+07
same,L-valine level (metabolomics signal),replicate samples,1.71E+08 and 1.67E+08 and 1.60E+08
same,dCMP level (metabolomics signal),replicate samples,2.34E+04 and 2.37E+04 and 1.78E+04
same,dTMP level (metabolomics signal),replicate samples,9.79E+05 and 1.15E+06 and 1.17E+06
same,glycine level (metabolomics signal),replicate samples,2.21E+06 and 2.32E+06 and 2.35E+06
same,N-Acyl-D-aspartate (C06380) metabolite signal,[1],2.31E+05 and 2.56E+05 and 2.58E+05
same,Poly-gamma-D-glutamate (C05723) metabolite signal,[1],3.95E+07 and 4.61E+07 and 4.86E+07
same,D-Ribitol 5-phosphate (C01068) metabolite signal,[2],2.02E+04 and 2.67E+04 and 2.32E+04
same,"D-glucono-1,5-lactone (C00198) metabolite signal",[2],5.42E+05 and 4.39E+05 and 4.31E+05
same,L-Noradrenaline (C00547) metabolite signal,[2],7.51E+04 and 1.32E+05 and 6.59E+04
same,Oxalosuccinate (C05379) metabolite signal,[2],1.39E+05 and 1.40E+05 and 1.27E+05
same,Pyridoxamine (C00534) metabolite signal,[2],3.25E+04 and 2.97E+04 and 2.95E+04
same,Thioredoxin disulfide (C00343) metabolite signal,[2],5.85E+04 and 1.53E+04 and 4.46E+04
same,1-4-beta-D-Xylan (metabolite signal),[3],2.40E+05 and 2.75E+05 and 1.64E+05
same,2-Hydroxyglutarate/Citramalate (C02630) metabolite signal,[3],1.06E+05 and 6.70E+04 and 9.81E+04
same,5-6-Dihydrothymine (C00906) metabolite signal,[3],3.14E+05 and 2.95E+05 and 2.82E+05
same,5-10-Methenyltetrahydrofolate (metabolite signal),[3],3.07E+05 and 3.19E+05 and 3.47E+05
same,5-Hydroxyisourate (C11821) metabolite signal,[3],6.72E+06 and 4.60E+06 and 5.11E+06
same,5-L-Glutamyl-taurine (metabolite signal),[3],1.65E+05 and 1.74E+05 and 8.68E+04
same,5-Oxoproline (metabolite signal),[3],1.01E+06 and 8.27E+05 and 8.80E+05
same,(S)(+)-Allantoin (C02350) metabolite signal,[3],2.15E+04 and 0.00E+00 and 2.93E+04
same,Allantoate (C00499) metabolite signal,[3],2.52E+05 and 3.85E+05 and 2.39E+05
same,Ascorbate (metabolite signal),[3],9.38E+04 and 1.10E+05 and 1.13E+05
same,CMP-N-acetylneuraminate (metabolite signal),[3],2.14E+04 and 1.46E+04 and 2.19E+04
same,Carnosine (metabolite signal),[3],2.66E+05 and 1.54E+05 and 2.52E+05
same,Citrate (C00158) metabolite signal,[3],4.21E+04 and 3.38E+04 and 3.43E+04
same,Creatine (metabolite signal),[3],3.82E+08 and 3.13E+08 and 3.15E+08
same,Creatinine (metabolite signal),[3],3.99E+06 and 3.09E+06 and 3.73E+06
same,Cys-Gly (metabolite signal),[3],2.17E+06 and 2.13E+06 and 1.97E+06
same,D-Glucosamine (metabolite signal),[3],2.57E+05 and 3.05E+05 and 2.16E+05
same,D-Glucose (C00031) metabolite signal,[3],6.04E+06 and 6.91E+06 and 5.92E+06
same,D-Ribose (C00121) metabolite signal,[3],1.90E+05 and 1.42E+05 and 1.71E+05
same,Dehydroascorbate (metabolite signal),[3],1.55E+04 and 2.20E+04 and 1.72E+04
same,Dihydrofolate (metabolite signal),[3],1.72E+06 and 1.97E+06 and 2.05E+06
same,Dimethylglycine (metabolite signal),[3],1.06E+06 and 1.08E+06 and 9.75E+05
same,Diphosphate (C00013) metabolite signal,[3],3.53E+03 and 8.59E+03 and 2.40E+03
same,Fumarate (C00122) metabolite signal,[3],1.24E+05 and 9.52E+04 and 1.10E+05
same,Glutathione (C00051) metabolite signal,[3],1.46E+08 and 1.38E+08 and 1.22E+08
same,Glutathione disulfide (metabolite signal),[3],2.34E+05 and 1.46E+05 and 2.55E+05
same,Hypoxanthine (C00262) metabolite signal,[3],4.07E+04 and 4.68E+04 and 4.37E+04
same,IMP (C00130) metabolite signal,[3],0.00E+00 and 1.71E+05 and 8.01E+04
same,Inosine (C00294) metabolite signal,[3],1.09E+05 and 6.95E+04 and 7.35E+04
same,L-Citrulline (metabolite signal),[3],4.16E+06 and 4.12E+06 and 4.14E+06
same,L-Homoserine (metabolite signal),[3],1.91E+05 and 2.39E+05 and 1.86E+05
same,Lactate (C01432) metabolite signal,[3],8.53E+06 and 7.59E+06 and 8.32E+06
same,Malate (C00149) metabolite signal,[3],2.09E+05 and 1.30E+05 and 1.62E+05
same,Mannitol (C00392) metabolite signal,[3],1.34E+05 and 1.15E+05 and 1.42E+05
same,N-Acetylneuraminate (metabolite signal),[3],3.02E+04 and 1.89E+04 and 1.91E+04
same,N-Glycoloyl-neuraminate (metabolite signal),[3],1.66E+05 and 1.75E+05 and 1.62E+05
same,NAD+ (C00003) metabolite signal,[3],5.24E+05 and 2.47E+05 and 4.46E+05
same,Nicotinamide (C00153) metabolite signal,[3],3.74E+07 and 4.23E+07 and 3.90E+07
same,Ornithine (metabolite signal),[3],2.17E+06 and 2.00E+06 and 1.65E+06
same,Oxaloacetate (C00036) metabolite signal,[3],3.93E+04 and 5.60E+04 and 5.05E+04
same,Phosphoserine (metabolite signal),[3],5.17E+04 and 3.63E+04 and 3.54E+04
same,Putrescine (metabolite signal),[3],7.82E+04 and 7.87E+04 and 8.82E+04
same,Pyridoxal (C00250) metabolite signal,[3],7.34E+04 and 7.61E+04 and 7.64E+04
same,Pyruvate (C00022) metabolite signal,[3],5.86E+05 and 6.64E+05 and 6.39E+05
same,S-Glutathionyl-L-cysteine (metabolite signal),[3],1.61E+05 and 1.05E+05 and 1.77E+05
same,Sedoheptulose 1-phosphate (C06222) metabolite signal,[3],1.57E+04 and 1.33E+04 and 1.23E+04
same,Spermidine (metabolite signal),[3],1.10E+07 and 8.21E+06 and 9.51E+06
same,Spermine (metabolite signal),[3],1.10E+07 and 9.13E+06 and 8.60E+06
same,Succinate (C00042) metabolite signal,[3],7.14E+04 and 9.44E+04 and 6.66E+04
same,Thymidine (C00214) metabolite signal,[3],1.01E+04 and 1.94E+04 and 1.37E+04
same,UDP (C00015) metabolite signal,[3],1.69E+05 and 2.66E+05 and 2.03E+05
same,UDP-N-acetyl-D-glucosamine (metabolite signal),[3],1.85E+04 (2×) and 1.14E+04
same,UDP-glucose (C00029) metabolite signal,[3],3.86E+04 and 2.14E+04 and 2.96E+04
same,Urate (C00366) metabolite signal,[3],3.40E+04 and 3.79E+04 and 3.24E+04
same,Xanthine (C00385) metabolite signal,[3],3.40E+05 and 3.32E+05 and 3.09E+05
same,alpha-D-Glucosamine 1-phosphate (metabolite signal),[3],2.32E+06 and 1.61E+06 and 1.74E+06
same,alpha-D-Ribose 1-phosphate (C00620) metabolite signal,[3],1.49E+05 and 1.17E+05 and 8.56E+04
same,gamma-Glutamyl-gamma-aminobutyrate (metabolite signal),[3],9.84E+04 and 1.13E+05 and 1.05E+05
same,gamma-L-Glutamyl-D-alanine (metabolite signal),[3],3.61E+04 and 2.95E+04 and 2.86E+04
same,gamma-L-Glutamyl-L-cysteine (metabolite signal),[3],2.26E+04 and 4.82E+04 and 4.78E+04
